From patent US9730944B2, “Antiviral activity of novel bicyclic heterocycles” (priority 2010, dated 2017)
Values after ≈ are worked out from the molar mass of the structure shown. Read-outs that look alike come from different tables or passages of the source.

Columns and labels:
[1] = in vitro; settings: human, PV CC50
[2] = system: poliovirus (PV type 1); assay: microbe, parasite or virus in culture; type: cell-based; settings: Enterovirus C, read-out: PV-1 EC50
[3] = system: HIV-1 strain IIIB; assay: Inhibition of replication of HIV-1 (IIIB strain) in MT-4 cells, MTT assay; type: cell-based; settings: Human immunodeficiency virus 1, IIIB, MT4, 120 h, read-out: EC50 (μM) HIV-1 (IIIB)
[4] = in vitro; settings: African green monkey, PV CC50
[5] = system: HIV-2 strain (ROD); assay: Inhibition of replication of HIV-2 (ROD strain) in MT-4 cells, MTT assay; type: cell-based; settings: Human immunodeficiency virus 2, MT4, 120 h, read-out: EC50 (μM) HIV-2 (ROD)
[6] = in vitro; settings: human
[7] = system: poliovirus (PV type 3); assay: microbe, parasite or virus in culture; type: cell-based; settings: Enterovirus C, read-out: PV-3 EC50
[8] = system: poliovirus (PV type 2); assay: microbe, parasite or virus in culture; type: cell-based; settings: Enterovirus C, read-out: PV-2 EC50
[9] = MT-4 cells, MTT assay, five days after infection, 50% protection from cytopathic effect

| Compound | CC50 [1] | EC50 ([2]; HeLa) | EC50 ([2]; Vero) | EC50 [3, 9] | CC50 [4] | EC50 [5, 9] | CC50 [6] | EC50 ([7]; HeLa) | EC50 ([7]; Vero) | EC50 ([8]; HeLa) | EC50 ([8]; Vero) | EC50 [3] | EC50 [5] |
| --- | --- | --- | --- | --- | --- | --- | --- | --- | --- | --- | --- | --- | --- |
| Nc1nc(N2CCN(C(=O)COc3ccc(Cl)cc3)CC2)c2nc(C(Cc3ccccc3)c3ccc(F)cc3)sc2n1 (centres unmarked) [Example 67, 1-(4-(5-amino-2-(1-(4-fluorophenyl)-2-phenylethyl)thiazolo[5,4-d]pyrimidin-7-yl)piperazin-1-yl)-2-(4-chlorophenoxy)ethanone] | > 50 µg/mL | > 50 µg/mL | > 50 µg/mL | > 50 µM | 114 µg/mL (≈ 189 µM) | > 50 µM | > 50 µM | > 50 µg/mL | > 50 µg/mL | ≥ 50 µg/mL | 11.9 µg/mL (≈ 19.7 µM) |  |  |
| Cc1nc(N2CCN(C(=O)COc3ccc(Cl)cc3)CC2)c2nc(Cc3ccc(F)cc3)oc2n1 [Example 171, 2-(4-chlorophenoxy)-1-(4-(2-(4-fluorobenzyl)-5-methyloxazolo[5,4-d]pyrimidin-7-yl)piperazin-1-yl)ethanone] | 46.1 µg/mL (≈ 93 µM) | > 50 µg/mL | > 50 µg/mL | > 29.6 µM | 118 µg/mL (≈ 238 µM) | > 33 µM | 33 µM | > 50 µg/mL | > 50 µg/mL | ≥ 50 µg/mL | 0.07 µg/mL (≈ 0.141 µM) |  |  |
| Nc1nc(N2CCN(C(=O)COc3ccc(Cl)cc3)CC2)c2nc(Cc3ccc(F)cc3)sc2n1 [Example 46, 1-(4-(5-amino-2-(4-fluorobenzyl)thiazolo[5,4-d]pyrimidin-7-yl)piperazin-1-yl)-2-(4-chlorophenoxy)ethanone] | > 50 µg/mL | 0.11 µg/mL (≈ 0.214 µM) | 0.12 µg/mL (≈ 0.234 µM) | 0.67 µM | 133 µg/mL (≈ 259 µM) | 1.15 µM | 164 µM | 0.11 µg/mL (≈ 0.214 µM) | > 50 µg/mL | 0.039 µg/mL (≈ 0.076 µM) | 0.14 µg/mL (≈ 0.273 µM) |  |  |
| O=C(COc1ccc(Cl)cc1)N1CCN(c2ncnc3oc(Cc4ccc(F)cc4)nc23)CC1 [Example 170, 2-(4-chlorophenoxy)-1-(4-(2-(4-fluorobenzyl)oxazolo[5,4-d]pyrimidin-7-yl)piperazin-1-yl)ethanone] | > 50 µg/mL | > 50 µg/mL | > 50 µg/mL | 4.03 µM | 105 µg/mL (≈ 218 µM) | > 50 µM | > 50 µM | > 50 µg/mL | > 50 µg/mL | ≥ 50 µg/mL | 1.76 µg/mL (≈ 3.65 µM) |  |  |
| Nc1nc(N2CCN(C(=O)COc3ccc(Cl)cc3Cl)CC2)c2nc(CCc3ccc(F)cc3)sc2n1 [Example 54, 1-(4-(5-amino-2-(4-fluorophenethyl)thiazolo[5,4-d]pyrimidin-7-yl)piperazin-1-yl)-2-(2,4-dichlorophenoxy)ethanone] | > 50 µg/mL | > 50 µg/mL | > 50 µg/mL | > 157 µM | 138 µg/mL (≈ 245 µM) | > 157 µM | 157 µM | ≥ 50 µg/mL | > 50 µg/mL | ≥ 50 µg/mL | ≥ 50 µg/mL |  |  |
| COCCNC(=O)c1nc(N2CCN(C(=O)COc3ccc(Cl)cc3)CC2)c2cc(-c3ccc(F)cc3)sc2n1 [Example 356, 4-(4-(2-(4-chlorophenoxy)acetyl)piperazin-1-yl)-6-(4-fluorophenyl)-N-(2-methoxyethyl)thieno[2,3-d]pyrimidine-2-carboxamide] | > 50 µg/mL | > 50 µg/mL | > 50 µg/mL | > 155 µM | 108 µg/mL (≈ 185 µM) | > 155 µM | > 155 µM | > 50 µg/mL | > 50 µg/mL | ≥ 50 µg/mL | ≥ 50 µg/mL |  |  |
| Nc1nc(N2CCN(C(=O)COc3ccc(Cl)cc3)CC2)c2nc(CCOc3ccc(F)cc3)sc2n1 [Example 48, 1-(4-(5-amino-2-(2-(4-fluorophenoxy)ethyl)thiazolo[5,4-d]pyrimidin-7-yl)piperazin-1-yl)-2-(4-chlorophenoxy)ethanone] | 49.4 µg/mL (≈ 91 µM) | 0.35 µg/mL (≈ 0.645 µM) | 0.11 µg/mL (≈ 0.203 µM) | 0.63 µM | > 150 µg/mL | 5.12 µM | 11.7 µM | 0.97 µg/mL (≈ 1.79 µM) | 0.36 µg/mL (≈ 0.663 µM) | 0.36 µg/mL (≈ 0.663 µM) | 0.082 µg/mL (≈ 0.151 µM) |  |  |
| NC(=O)Cc1nc(N2CCN(C(=O)COc3ccc(Cl)cc3)CC2)c2cc(-c3ccc(F)cc3)sc2n1 [Example 358, 2-(4-(4-(2-(4-chlorophenoxy)acetyl)piperazin-1-yl)-6-(4-fluorophenyl)thieno[2,3-d]pyrimidin-2-yl)acetamide] | > 50 µg/mL | > 50 µg/mL | > 50 µg/mL | > 19.1 µM | > 150 µg/mL | > 19.1 µM | > 19.1 µM | > 50 µg/mL | > 50 µg/mL | ≥ 50 µg/mL | > 50 µg/mL |  |  |
| O=C(O)c1nc(N2CCN(C(=O)COc3ccc(Cl)cc3)CC2)c2cc(-c3ccc(F)cc3)sc2n1 [Example 357, 4-(4-(2-(4-chlorophenoxy)acetyl)piperazin-1-yl)-6-(4-fluorophenyl)thieno[2,3-d]pyrimidine-2-carboxylic acid] | > 50 µg/mL | > 50 µg/mL | > 50 µg/mL | 157 µM | 61.4 µg/mL (≈ 117 µM) | > 237 µM | > 237 µM | > 50 µg/mL | > 50 µg/mL | ≥ 50 µg/mL | > 50 µg/mL |  |  |
| Cc1cccc(NC(=O)N2CCN(c3nc(N)nc4sc(-c5ccc(F)cc5)cc34)CC2)c1 [Example 359, 4-(2-amino-6-(4-fluorophenyl)thieno[2,3-d]pyrimidin-4-yl)-N-m-tolylpiperazine-1-carboxamide] | > 50 µg/mL | 0.94 µg/mL (≈ 2.03 µM) | 0.43 µg/mL (≈ 0.93 µM) | 6.18 µM | > 150 µg/mL | 10.4 µM | 140 µM | 1.07 µg/mL (≈ 2.31 µM) | 0.73 µg/mL (≈ 1.58 µM) | 0.41 µg/mL (≈ 0.886 µM) | 0.21 µg/mL (≈ 0.454 µM) |  |  |
| Cc1cccc(NC(=O)N2CCN(c3nc(C(N)=O)nc4sc(-c5ccc(F)cc5)cc34)CC2)c1 [Example 362, 6-(4-fluorophenyl)-4-(4-(m-tolylcarbamoyl)piperazin-1-yl)thieno[2,3-d]pyrimidine-2-carboxamide] | > 50 µg/mL | > 50 µg/mL | > 50 µg/mL |  | 128 µg/mL (≈ 261 µM) |  | 255 µM | > 50 µg/mL | > 50 µg/mL | ≥ 50 µg/mL | > 50 µg/mL | ≥ 255 µM | ≥ 255 µM |
| Cc1nc(N2CCN(C(=O)COc3ccc(Cl)cc3)CC2)c2nc(-c3ccc(F)cc3)oc2n1 [Example 168, 2-(4-chlorophenoxy)-1-(4-(2-(4-fluorophenyl)-5-methyl-oxazolo[5,4-d]pyrimidin-7-yl)piperazin-1-yl)ethanone] | > 50 µg/mL | > 50 µg/mL | > 50 µg/mL | > 50 µM | 83.3 µg/mL (≈ 173 µM) | > 50 µM | > 50 µM | > 50 µg/mL | > 50 µg/mL | ≥ 50 µg/mL | ≥ 50 µg/mL |  |  |
| Nc1nc(N2CCN(C(=O)CCOc3ccc(F)cc3)CC2)c2nc(CCc3ccc(F)cc3)sc2n1 [Example 55, 1-(4-(5-amino-2-(4-fluorophenethyl)thiazolo[5,4-d]pyrimidin-7-yl)piperazin-1-yl)-3-(4-fluorophenoxy)propan-1-one] | > 50 µg/mL | > 50 µg/mL | > 50 µg/mL | > 57.1 µM | 94.9 µg/mL (≈ 181 µM) | > 57.1 µM | 57.1 µM | > 50 µg/mL | > 50 µg/mL | ≥ 50 µg/mL | ≥ 50 µg/mL |  |  |
| CCOC(=O)c1nc(N2CCN(C(=O)Nc3cccc(C)c3)CC2)c2cc(-c3ccc(F)cc3)sc2n1 [Example 361, ethyl 6-(4-fluorophenyl)-4-(4-(m-tolylcarbamoyl)piperazin-1-yl)thieno[2,3-d]pyrimidine-2-carboxylate] | > 50 µg/mL | > 50 µg/mL | > 50 µg/mL |  | 61.7 µg/mL (≈ 119 µM) |  | 156 µM | > 50 µg/mL | > 50 µg/mL | ≥ 50 µg/mL | > 50 µg/mL | ≥ 156 µM | ≥ 156 µM |
| Nc1nc(N2CCN(C(=O)COc3ccc(Cl)cc3)CC2)c2nc(CCc3ccc(F)cc3)oc2n1 [Example 172, 1-(4-(5-amino-2-(4-fluorophenethyl)oxazolo[5,4-d]pyrimidin-7-yl)piperazin-1-yl)-2-(4-chlorophenoxy)ethanone] | > 50 µg/mL | 32 µg/mL (≈ 62.6 µM) | 1.16 µg/mL (≈ 2.27 µM) |  | 76.2 µg/mL (≈ 149 µM) |  | 32 µM | > 50 µg/mL | 4.36 µg/mL (≈ 8.53 µM) | 15.6 µg/mL (≈ 30.6 µM) | 1.11 µg/mL (≈ 2.17 µM) | 1.82 µM | ≥ 32 µM |
| Cc1nc(N2CCN(C(=O)COc3ccc(Cl)cc3)CC2)c2nc(-c3ccc(F)cc3)sc2n1 [Example 47, 2-(4-chlorophenoxy)-1-(4-(2-(4-fluorophenyl)-5-methylthiazolo[5,4-d]pyrimidin-7-yl)piperazin-1-yl)ethanone] | > 50 µg/mL | > 50 µg/mL | 0.64 µg/mL (≈ 1.29 µM) | > 50 µM | > 150 µg/mL | > 50 µM | > 50 µM | > 50 µg/mL | > 50 µg/mL | ≥ 50 µg/mL | 0.35 µg/mL (≈ 0.703 µM) |  |  |
